This is an account of results in US5691307A, “O^6 -substituted guanine compositions and methods for depleting O^6” (The United States of America as represented by the …, priority 1994, dated 1997).

The subject of data set [1] is AGT. To be noted: cited from earlier work; for AGT depletion (shown previously): literature.
Data set [2] addresses T1, alkyltransferase (AGT), HT29 cells (Homo sapiens, UniProt P16455).
T1 construct: human colon tumor cells HT29 and intact HT29 cells; endogenous in cells; host or cells: HT29 human colon tumor cells, intact
T1 sequence (P16455 1-207): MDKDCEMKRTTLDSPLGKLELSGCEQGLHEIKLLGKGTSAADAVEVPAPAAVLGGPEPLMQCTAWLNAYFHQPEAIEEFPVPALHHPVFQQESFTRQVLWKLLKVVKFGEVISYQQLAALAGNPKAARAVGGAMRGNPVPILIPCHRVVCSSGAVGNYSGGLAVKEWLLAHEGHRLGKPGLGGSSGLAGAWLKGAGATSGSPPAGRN
Briefly: AGT depletion/inactivation in intact HT29 cells. The data set is classed as cell-based. The procedure: After four hours, cells were harvested and frozen at -80° C. until analysis for AGT.

The target of data set [3] is T2, alkyltransferase (AGT), HT29 cell-free extract (Homo sapiens, UniProt P16455).
T2 sequence (P16455 1-207): T1 sequence (P16455 1-207)
Briefly: biochemical.

Data set [4] deals with tumor cells. To be noted: cited from earlier work.
Data set [5] relates to pancreatic tumors. To be noted: background; cited from earlier work.
The subject of data set [6] is pancreatic beta cells. To be noted: cited from earlier work.
Data set [7] deals with AGT. Description: AGT depletion (general statements).
For data set [8] the following is noted: background; agents under development; cited from earlier work.
The nature of data set [9]: Stability in alkaline solution (UV at pH 13). It counts as physicochemical. To be noted: pH 13, UV measurement. The procedure:
The reaction mixture was stirred at 0° C. for 30 min at which time the ice bath was removed and the reaction was allowed to proceed overnight at room temperature. At this point, a water-ice mixture (~5 ml) was added to the flask with vigorous stirring for 5 minutes.

The nature of data set [10]: Conversion to O^6-benzylguanine / stability in vitro and in cell cultures. The data set is classed as in vitro ADME.
Data set [11] deals with malignant melanomas, brain tumors and mycosis fungoides. To be noted: background; cited from earlier work.
Data set [12] concerns prostate tumors. To be noted: rats bearing prostate tumors; O^6-benzylguanine one hour prior to BCNU, or BCNU alone at equal dose; cited from earlier work.
Data set [13] has as its system active melanin producing cells such as melanoma cells. To be noted: cited from earlier work.
Setting [14] is: HT29 cells, 4 h incubation, 50% inactivation (Table 2), read-out: ED50 In cells.
The mark [15] stands for this setting: HT29 cell-free extract, 30 min incubation, 50% inactivation (Table 2), read-out: ED50 In cell-free extract.

Each structure is given as a SMILES string. Where two headings read alike, the source gives them in different places.

Consider `Nc1nc(OCc2ccccc2)c2ncn([C@@H]3O[C@H](CO)[C@@H](O)[C@H]3O)c2n1` [O^6 -benzylguanosine], for which the “AGT depletion (shown previously)” value in [1] is given as “effective in depleting AGT”. Moreover, the IC50 is 2 µM in data set [2] (setting [14]) and 11 µM in data set [3] (setting [15]).
Consider `COc1nc(N)nc2nc[nH]c12` [O^6 -methylguanine], for which the “potency as AGT depleter” value in data set [1] was “weak”. For the same molecule, the values for the IC50 in data set [2] (setting [14]) and in data set [3] (setting [15]) were 120 µM and 350 µM, respectively. In addition, the “enhancement in the cytotoxic response to alkylating agents” value (“enhancement in the cytotoxic response” for short) in [4] is on record as “enhancement in the cytotoxic response to chemotherapeutic alkylating agents”.
`CN(N=O)C(=O)N[C@H]1C(O)O[C@H](CO)[C@@H](O)[C@@H]1O` (stereo partly drawn) [Streptozotocin, 2-deoxy-2-(3-methyl-3-nitrosoureido)-D-glucopyranose]: in data set [5], the “effectiveness against pancreatic tumors” value was “effective”. Moreover, in [6], the “selective destruction of pancreatic beta cells” value is listed as “selectively destructive to pancreatic beta cells”.
In the case of `CC(=O)OC[C@H]1OC(OC(C)=O)[C@H](NC(=O)Cn2cnc3c(OCc4ccccc4)nc(N)nc32)[C@@H](OC(C)=O)[C@@H]1OC(C)=O` (stereo partly drawn) [Example 8, 2-Amino-6-benzyloxy-9-{N-[2-deoxy-2-(1,3,4,6-tetra-O-acetyl)-D-glucopyranosyl]carbamoylmethyl}purine], the AGT depletion characteristics entry in data set [7] was “exhibit AGT depletion characteristics”.
For `CCC(O)Cn1cnc2c(OCc3ccccc3)nc(N)nc21` (stereo not shown) [Example 5b, 2-Amino-6-benzyloxy-9-(2-hydroxybutyl)purine], in data set [7], the AGT depletion characteristics entry was “exhibit AGT depletion characteristics”.
The same measure, in the same setting: in the case of `N#CCn1cnc2c(OCc3ccccc3)nc(N)nc21` [Example 6b, 2-Amino-6-benzyloxy-9-cyanomethylpurine] it was “exhibit AGT depletion characteristics”.
As for `CS(=O)(=O)CS(=O)(=O)OCCCl` [Clomesone, 2-chloroethylmethylsulfonylmethanesulfonate], the side effects result in data set [8] is “fewer side effects”.
Take `O=NN(CCCl)C(=O)NCCO` [1-(2-chloroethyl)-3-(2-hydroxyethyl)-1-nitrosourea]: in data set [8], the side effects entry was “fewer side effects”.
As for `NC(=O)Cn1cnc2c(OCc3ccccc3)nc(N)nc21` [Example 4b, 2-Amino-6-benzyloxy-9-carbamoylmethylpurine], the AGT depletion characteristics entry in data set [7] is given as “exhibit AGT depletion characteristics”.
On to `C=CCOc1nc(N)nc2nc[nH]c12` [O^6 -allylguanine, O^6 -Allylguanine], for which the IC50 in data set [2] was determined as 4 µM; in [3] it was 20 µM.
Consider `CC(=O)n1cnc2c(OCc3ccccc3)nc(N)nc21` [Example 13, 9-Acetyl-O^6-benzylguanine], for which the “decomposition at pH 13” value in data set [9] was “decomposes to O^6 -benzylguanine”. In addition, in data set [10] (in vitro and in cultures), the conversion by hydrolysis result is “Converted to O^6benzylguanine by hydrolysis”.
In the case of `Cn1nnc2c(C(N)=O)ncn2c1=O` [Temozolomide, 8-carbamoyl-3-methylimidazo[5,1-d]-1,2,3,5-tetrazin-4-(3H)-one], in [11], the “activity against malignant melanomas, brain tumors and mycosis fungoides” value is listed as “active”.
As for `C[C@]12CC[C@H]3[C@@H](CCC4=CC(=O)CC[C@@]43C)[C@@H]1CC[C@@H]2OC(=O)Cn1cnc2c(OCc3ccccc3)nc(N)nc21` [Example 20, O^6 -Benzyl-9-(4-androsten-3-one-17β-oxycarbonylmethyl) guanine], the values for the IC50 in [2] and in data set [3] were 0.5 µM and 5 µM, respectively.
For `CCOP(=O)(OCC)C(C)NC(=O)N(CCCl)N=O` (stereo not shown) [Fotemustine, 1-[N-(2-chloroethyl)-N-nitrosoureido]ethylphosphonic acid diethyl ester], in [8], the side effects entry is on record as “fewer side effects”.
In the case of `C[C@]12CCC(=O)C[C@@H]1CC[C@@H]1[C@@H]2CC[C@]2(C)[C@@H](OC(=O)Cn3cnc4c(OCc5ccccc5)nc(N)nc43)CC[C@@H]12` [Example 22, O^6 -Benzyl-9-(5α-androstan-3-one-17β-oxycarbonylmethyl) guanine], the IC50 in [2] amounted to 0.5 µM; in data set [3], 4 µM.
Turning to `Nc1nc(OCc2ccc(Cl)cc2)c2nc[nH]c2n1` [O^6 -(p-chlorobenzyl)guanine, O^6 -(p-chlorobenzyl) guanine], in data set [1], the “potency as AGT depleter” value is “more potent” and the “AGT depletion (shown previously)” value is “effective in depleting AGT”. Besides, the IC50 in data set [2] (setting [14]) was determined as 0.08 µM. The “enhancement in the cytotoxic response” value in data set [4] is on record as “enhancement in the cytotoxic response to chemotherapeutic alkylating agents”. Further, in [3] (setting [15]), the IC50 turned out to be 0.2 µM.
As to `Nc1nc(OCc2ccccc2)c2ncn([C@H]3C[C@H](O)[C@@H](CO)O3)c2n1` [O^6-benzyl-2'-deoxyguanosine], in data set [1], the “AGT depletion (shown previously)” value is reported as “effective in depleting AGT”. Also, the IC50 is 0.5 µM in data set [2] (setting [14]) and 2 µM in data set [3] (setting [15]).
With `CCOC(=O)Cn1cnc2c(OCc3ccccc3)nc(N)nc21` [Example 3b, 2-Amino-6-benzyloxy-9-carboethoxymethylpurine], the AGT depletion characteristics entry in data set [7] is “exhibit AGT depletion characteristics”. Also, the IC50 was found to be 3 µM in data set [2] (setting [14]) and 30 µM in data set [3] (setting [15]).
Consider `Nc1nc(OCc2ccc(Cl)cc2)c2ncn([C@@H]3O[C@H](CO)[C@@H](O)[C@H]3O)c2n1` [O^6 -(p-chlorobenzyl)guanosine], for which the “AGT depletion (shown previously)” value in data set [1] is listed as “effective in depleting AGT”. The IC50 in data set [2] (setting [14]) was 5 µM; in data set [3] (setting [15]), 10 µM.
Regarding `O=NN(CCCl)C(=O)NCCCl` [BCNU, 1,3-bis(2-chloroethyl)-1-nitrosourea], the “regression in tumor growth” value in [12] is “not observed”.
For the molecule `Nc1nc(OCc2ccc(F)cc2)c2nc[nH]c2n1` [O^6 -(p-fluorobenzyl)guanine, O^6 -(p-fluorobenzyl) guanine], the “AGT depletion (shown previously)” value in data set [1] was “effective in depleting AGT”. Also, the IC50 in [3] (setting [15]) came to 0.2 µM.
As to `Nc1nc(OCc2ccccc2)c2ncn(CC(=O)[O-])c2n1.[Na+]`, the AGT depletion characteristics entry in data set [7] is “exhibit AGT depletion characteristics”.
In the case of `O=c1cc[nH]c(=S)[nH]1` [Thiouracil], the “accumulation in active melanin producing cells” value in data set [13] was “accumulates readily in active melanin producing cells such as melanoma cells”.
As to `Cc1ccc(COc2nc(N)nc3c2ncn3[C@@H]2O[C@H](CO)[C@@H](O)[C@H]2O)cc1` [O^6 -(p-methylbenzyl)guanosine, O^6 - (p-methylbenzyl)guanosine], the “AGT depletion (shown previously)” value in data set [1] is “effective in depleting AGT”. Moreover, the IC50 in [2] (setting [14]) is 3 µM; in data set [3] (setting [15]), 9 µM.
Turning to `Cc1ccc(COc2nc(N)nc3nc[nH]c23)cc1` [O^6 -(p-methylbenzyl)guanine], in data set [1], the “potency as AGT depleter” value is recorded as “more potent” and the “AGT depletion (shown previously)” value is “effective in depleting AGT”. In addition, the IC50 in data set [2] (setting [14]) worked out at 0.08 µM. In addition, in data set [4], the “enhancement in the cytotoxic response” value is “enhancement in the cytotoxic response to chemotherapeutic alkylating agents”. For the same molecule, the IC50 in [3] (setting [15]) was found to be 0.2 µM.
In the case of `Nc1nc(OCc2ccccc2)c2ncn(CC(=O)[O-])c2n1.[Na+]` [sodium salt], the IC50 in [3] (setting [15]) was 157 µM.
Turning to `CC(C)(C)C(=O)OCn1cnc2c(OCc3ccccc3)nc(N)nc21` [Example 7, 2-Amino-6-benzyloxy-9-pivaloyloxymethylpurine], the “conversion by esterases in cell cultures” value in data set [10] (cell cultures) was “Converted to O^6benzylguanine by esterases in cell cultures”. For the same molecule, the stability in vitro entry in [10] (in vitro) is on record as “stable in vitro”.
